This passage reports MIC and MBC results from patent publication US12472168B2, “Ring-fused thiazolino 2-pyridones, methods for preparation thereof and their use in the treatment and/or prevention of a disease involving gram-positive bacteria” (Quretech Bio AB, priority 2017, dated 2025).

For assay [1], the system named is MRSA. Description: Minimum Inhibitory Concentration (MIC) and Minimum Bactericidal Concentration (MBC) assays. The format is cell-based, Methicillin-resistant Staphylococcus aureus. Conditions: Staphylococcus aureus, compound alone, no antibiotic; for MIC: 18 h, overnight (18 hrs), read-out: MIC. The protocol:
(§1) MIC was defined by the lowest concentration of the test compound that inhibits visible growth of pathogen of interest. The optical density of the pathogen of interest culture was measured by OD600.
(§2) MBC was determined colony forming units (CFUs) enumeration by serially diluting and plating bacterial cultures on BHI plates.
(§3) Thus, no antibiotic was used in Table 2.

Assay [2] deals with Streptococcus. Kind of assay: MIC and MBC assays. It counts as cell-based. Conditions: compound alone, no antibiotic. On the procedure: as §1, §2, §3
In assay [3] the test system is E. faecalis. Description: MIC and MBC assays. The format is cell-based. Conditions: Enterococcus faecalis, compound alone, no antibiotic; for MIC: overnight (18 hrs). The protocol:
as §1, §2, §3

In assay [4] the test system is Strep. pyogenes. Kind of assay: MIC and MBC assays. The format is cell-based. The note with it: Streptococcus pyogenes, compound alone, no antibiotic; for MIC: overnight (18 hrs). The protocol:
(§4) […]. MIC was defined by the lowest concentration of the test compound that inhibits visible growth of pathogen of interest. The optical density of the pathogen of interest culture was measured by OD600.
(§5) […]. MBC was determined colony forming units (CFUs) enumeration by serially diluting and plating bacterial cultures on BHI plates.
(§6) . Thus, no antibiotic was used in Table 2.

Assay [5] concerns Staph. aureus. Description: MIC and MBC assays. It counts as cell-based. The note with it: Staphylococcus aureus, compound alone, no antibiotic; for MIC: overnight (18 hrs). The protocol:
as §4, §5, §6

The subject of assay [6] is Staph. saphyticus. Description: MIC and MBC assays. The note with it: Staphylococcus, compound alone, no antibiotic. It counts as cell-based. On the procedure: as §4, §5, §6
Assay [7] has as its system C. diff. Kind of assay: MIC and MBC assays. It counts as cell-based, Clostridium difficile. The note with it: Clostridioides difficile, compound alone, no antibiotic. The protocol:
as §4, §5, §6

Converted amounts (≈) assume the structure as drawn. A value given as a limit tells only on which side of the number the result lay.

Usually MIC stands for the smallest concentration in the dilution series that meets the test's criterion for growth inhibition. What is called MBC is the smallest concentration meeting the test's criterion for killing. A high value points to weaker bactericidal potency. Turning to `CCCCCOc1ccc(-c2sc3c(C4CC4)c(Cc4cccc5ccccc45)cc(=O)n3c2C(=O)O)cc1C` [Example 6, 5-Cyclopropyl-4-[(1-naphthyl)methyl]-2-oxo-8-[4-(pentyloxy)-3-methyl-phenyl]-7-thia-1-azabicyclo[4.3.0]nona-3,5,8-triene-9-carboxylic acid], the MIC is 69 µM (≈ 38.1 µg/mL) in assay [1] and 200 µM (≈ 110 µg/mL) in assay [3]. The MBC in assay [1] worked out at 37 µM (≈ 20.4 µg/mL); in assay [2], 23 µM (≈ 12.7 µg/mL); in assay [3], 100 µM (≈ 55.2 µg/mL).

Turning to `CCCOc1ccc(-c2sc3c(C4CC4)c(Cc4cccc5ccccc45)cc(=O)n3c2C(=O)O)cc1C` [Example 2, 5-Cyclopropyl-4-[(1-naphthyl)methyl]-2-oxo-8-(4-propoxy-3-methyl-phenyl)-7-thia-1-azabicyclo[4.3.0]nona-3,5,8-triene-9-carboxylic acid], the MIC in assay [1] was 27 µM (≈ 14.1 µg/mL); in assay [3] it was 250 µM (≈ 131 µg/mL). The values for the MBC in assay [1] and in assay [2] were no less than 50 µM and 5 µM (≈ 2.62 µg/mL), respectively.

With `CCOc1ccc(-c2sc3c(C4CC4)c(Cc4cccc5ccccc45)cc(=O)n3c2C(=O)O)cc1C` [Example 5, 5-Cyclopropyl-8-(4-ethoxy-3-methyl-phenyl)-4-[(1-naphthyl)methyl]-2-oxo-7-thia-1-azabicyclo[4.3.0]nona-3,5,8-triene-9-carboxylic acid], the MIC in assay [1] is 150 µM (≈ 76.4 µg/mL); in assay [3], 250 µM (≈ 127 µg/mL). The compound also showed an MBC in assay [2] of 10 µM (≈ 5.1 µg/mL).

With `CCCCOc1ccc(-c2sc3c(C4CC4)c(Cc4cccc5ccccc45)cc(=O)n3c2C(=O)O)cc1` [Example 13, 8-(p-Butoxyphenyl)-5-cyclopropyl-4-[(1-naphthyl)methyl]-2-oxo-7-thia-1-azabicyclo[4.3.0]nona-3,5,8-triene-9-carboxylic acid], the values for the MIC in assay [1] and in assay [3] were 31 µM (≈ 16.2 µg/mL) and 300 µM (≈ 157 µg/mL), respectively. In addition, the MBC worked out at 25 µM (≈ 13.1 µg/mL) in assay [1] and 3 µM (≈ 1.57 µg/mL) in assay [2].

Compound `O=C(O)c1c(-c2ccoc2)sc2c(C3CC3)c(Cc3cccc4ccccc34)cc(=O)n12` [Example 36, 5-Cyclopropyl-8-(3-furyl)-4-[(1-naphthyl)methyl]-2-oxo-7-thia-1-azabicyclo[4.3.0]nona-3,5,8-triene-9-carboxylic acid] yielded an MBC in assay [4] of 25 µM (≈ 11 µg/mL).

Turning to `O=C(O)c1c(-c2ccc3[nH]ccc3c2)sc2c(C3CC3)c(Cc3cccc4ccccc34)cc(=O)n12` [Example 32, 5-Cyclopropyl-8-(1H-indol-5-yl)-4-[(1-naphthyl)methyl]-2-oxo-7-thia-1-azabicyclo[4.3.0]nona-3,5,8-triene-9-carboxylic acid], the MBC is 50 µM (≈ 24.5 µg/mL) in assay [4], greater than 400 µM in assay [1] and greater than 400 µM in assay [3]. Besides, in assay [1], the MIC is 200 µM (≈ 98.1 µg/mL).

Turning to `O=C(O)c1c(-c2ccco2)sc2c(C3CC3)c(Cc3cccc4ccccc34)cc(=O)n12` [Example 35, 5-Cyclopropyl-8-(2-furyl)-4-[(1-naphthyl)methyl]-2-oxo-7-thia-1-azabicyclo[4.3.0]nona-3,5,8-triene-9-carboxylic acid], the MBC in assay [4] is 50 µM (≈ 22.1 µg/mL).

For the compound `CCCCOc1ccc(-c2sc3c(C4CC4)c(Cc4cccc5ccccc45)cc(=O)n3c2C(=O)O)cc1C` [Example 7, 8-(4-Butoxy-3-methyl-phenyl)-5-cyclopropyl-4-[(1-naphthyl)methyl]-2-oxo-7-thia-1-azabicyclo[4.3.0]nona-3,5,8-triene-9-carboxylic acid], the MIC in assay [1] turned out to be 25 µM (≈ 13.4 µg/mL); in assay [3], 95 µM (≈ 51.1 µg/mL). The MBC was found to be 32 µM (≈ 17.2 µg/mL) in assay [1], 7 µM (≈ 3.76 µg/mL) in assay [2] and 19 µM (≈ 10.2 µg/mL) in assay [3].

For the compound `O=C(O)c1c(-c2ccsc2)sc2c(C3CC3)c(Cc3cccc4ccccc34)cc(=O)n12` [Example 34, 5-Cyclopropyl-4-[(1-naphthyl)methyl]-2-oxo-8-(3-thienyl)-7-thia-1-azabicyclo[4.3.0]nona-3,5,8-triene-9-carboxylic acid], the results for the MBC in assay [4], in assay [5] and in assay [1] were 25 µM (≈ 11.4 µg/mL), 400 µM (≈ 183 µg/mL) and 250 µM (≈ 114 µg/mL), respectively.

Turning to `O=C(O)C1C(c2ccccc2)Sc2c(-c3ccc4c(c3)OCO4)c(COc3cccc4ccccc34)cc(=O)n21` (centres unmarked) [Example 39, 6-[(1-Naphthyloxy)methyl]-4-oxo-2-phenyl-7-(1,3-Dioxa-5-indanyl)-1-thia-3a-aza-3-indancarboxylic acid], the MBC in assay [4] was determined as 25 µM (≈ 13.7 µg/mL); in assay [6] it was 25 µM (≈ 13.7 µg/mL); in assay [5], 200 µM (≈ 110 µg/mL); in assay [1], 50 µM (≈ 27.5 µg/mL); in assay [7], 100 µM (≈ 55 µg/mL); in assay [3], 900 µM (≈ 495 µg/mL). Besides, the minimal inhibitory concentration (MIC) in assay [4] is 12.5 µM (≈ 6.87 µg/mL); in assay [6] (overnight (18 hrs)), greater than 500 µM; in assay [5], 50 µM (≈ 27.5 µg/mL); in assay [1], 50 µM (≈ 27.5 µg/mL); in assay [7] (overnight (18 hrs)), 100 µM (≈ 55 µg/mL); in assay [3] it was 400 µM (≈ 220 µg/mL).

For `O=C(O)c1c(-c2ccccc2)sc2c(C3CC3)c(Cc3cccc4ccccc34)cc(=O)n12` [Example 29, 5-Cyclopropyl-4-[(1-naphthyl)methyl]-2-oxo-8-phenyl-7-thia-1-azabicyclo[4.3.0]nona-3,5,8-triene-9-carboxylic acid], the MBC amounted to 25 µM (≈ 11.3 µg/mL) in assay [4], 200 µM (≈ 90.3 µg/mL) in assay [5] and 200 µM (≈ 90.3 µg/mL) in assay [1]. For the same compound, the MIC amounted to 25 µM (≈ 11.3 µg/mL) in assay [4], 100 µM (≈ 45.2 µg/mL) in assay [5] and 250 µM (≈ 113 µg/mL) in assay [1].

Take `CCCOc1ccc(-c2sc3c(OC)c(Cc4cccc5ccccc45)cc(=O)n3c2C(=O)O)cc1C` [Example 10, 5-Methoxy-4-[(1-naphthyl)methyl]-2-oxo-8-(4-propoxy-3-methyl-phenyl)-7-thia-1-azabicyclo[4.3.0]nona-3,5,8-triene-9-carboxylic acid]: the figures for the MIC in assay [1] and in assay [3] were 17 µM (≈ 8.73 µg/mL) and 188 µM (≈ 96.6 µg/mL), respectively. In addition, the minimum bactericidal concentration (MBC) was 17 µM (≈ 8.73 µg/mL) in assay [1], 5 µM (≈ 2.57 µg/mL) in assay [2] and 50 µM (≈ 25.7 µg/mL) in assay [3].

For the compound `O=C(O)c1c(-c2ccc3c(c2)OCCO3)sc2c(C3CC3)c(Cc3cccc4ccccc34)cc(=O)n12` [Example 33, 5-Cyclopropyl-8-(1,4-dioxa-2,3-dihydronaphth-6-yl)-4-[(1-naphthyl)methyl]-2-oxo-7-thia-1-azabicyclo[4.3.0]nona-3,5,8-triene-9-carboxylic acid], the MBC in assay [4] was 20 µM (≈ 10.2 µg/mL); in assay [5], 400 µM (≈ 204 µg/mL). This compound returned an MIC in assay [3] greater than 400 µM.

As to `COc1ccc(-c2sc3c(C4CC4)c(Cc4cccc5ccccc45)cc(=O)n3c2C(=O)O)cc1C` [Example 4, 5-Cyclopropyl-8-(4-methoxy-3-methyl-phenyl)-4-[(1-naphthyl)methyl]-2-oxo-7-thia-1-azabicyclo[4.3.0]nona-3,5,8-triene-9-carboxylic acid], the MIC was found to be 200 µM (≈ 99.1 µg/mL) in assay [1] and 250 µM (≈ 124 µg/mL) in assay [3]. Further, the MBC in assay [2] was 9 µM (≈ 4.46 µg/mL).

As for `CCCCCOc1ccc(-c2sc3c(C4CC4)c(Cc4cccc5ccccc45)cc(=O)n3c2C(=O)O)cc1` [Example 12, 5-Cyclopropyl-4-[(1-naphthyl)methyl]-2-oxo-8-[p-(pentyloxy)phenyl]-7-thia-1-azabicyclo[4.3.0]nona-3,5,8-triene-9-carboxylic acid], the MIC was 70 µM (≈ 37.6 µg/mL) in assay [1] and 300 µM (≈ 161 µg/mL) in assay [3]. Also, the MBC is 25 µM (≈ 13.4 µg/mL) in assay [1] and 2 µM (≈ 1.08 µg/mL) in assay [2].

With `CCCCCCOc1ccc(-c2sc3c(C4CC4)c(Cc4cccc5ccccc45)cc(=O)n3c2C(=O)O)cc1C` [Example 1, 5-Cyclopropyl-8-[4-(hexyloxy)-3-methyl-phenyl]-4-[(1-naphthyl)methyl]-2-oxo-7-thia-1-azabicyclo[4.3.0]nona-3,5,8-triene-9-carboxylic acid], the values for the MIC in assay [1] and in assay [3] were 20 µM (≈ 11.3 µg/mL) and 67 µM (≈ 37.9 µg/mL), respectively. Further, the MBC in assay [1] is 25 µM (≈ 14.1 µg/mL); in assay [2], 9 µM (≈ 5.09 µg/mL); in assay [3] it was 25 µM (≈ 14.1 µg/mL).

On to `CCCCCCCOc1ccc(-c2sc3c(C4CC4)c(Cc4cccc5ccccc45)cc(=O)n3c2C(=O)O)cc1C` [Example 3, 5-Cyclopropyl-8-[4-(heptyloxy)-3-methyl-phenyl] 4-[(1-naphthyl)methyl]-2-oxo-7-thia-1-azabicyclo[4.3.0]nona-3,5,8-triene-9-carboxylic acid], for which the MIC in assay [1] is 167 µM (≈ 96.8 µg/mL); in assay [3], 183 µM (≈ 106 µg/mL). Further, the MBC in assay [2] was 50 µM (≈ 29 µg/mL); in assay [3], 100 µM (≈ 58 µg/mL).

With `Cc1ccc(-c2sc3c(C4CC4)c(Cc4cccc5ccccc45)cc(=O)n3c2C(=O)O)cc1` [Example 31, 5-Cyclopropyl-4-[(1-naphthyl)methyl]-2-oxo-8-(p-tolyl)-7-thia-1-azabicyclo[4.3.0]nona-3,5,8-triene-9-carboxylic acid], the values for the MBC in assay [4], in assay [5] and in assay [1] were 50 µM (≈ 23.3 µg/mL), 100 µM (≈ 46.6 µg/mL) and 100 µM (≈ 46.6 µg/mL), respectively. Moreover, the MIC in assay [5] and in assay [1] was 50 µM (≈ 23.3 µg/mL) in each case.
